ChEMBL document CHEMBL1144217, “Design, synthesis and characterization of podocarpate derivatives as openers of BK channels” (Bioorg Med Chem Lett, 2008)

These molecules were tested against Calcium-activated potassium channel subunit alpha-1 (Homo sapiens) (UniProt Q12791) (assay: Activation of human BKalpha channel expressed in CHOK1 cells assessed as increase in ionic current at 30 uM relative to control). Conditions: CHO-K1.
Chain of Calcium-activated potassium channel subunit alpha-1 (Homo sapiens) (Q12791 whole entry): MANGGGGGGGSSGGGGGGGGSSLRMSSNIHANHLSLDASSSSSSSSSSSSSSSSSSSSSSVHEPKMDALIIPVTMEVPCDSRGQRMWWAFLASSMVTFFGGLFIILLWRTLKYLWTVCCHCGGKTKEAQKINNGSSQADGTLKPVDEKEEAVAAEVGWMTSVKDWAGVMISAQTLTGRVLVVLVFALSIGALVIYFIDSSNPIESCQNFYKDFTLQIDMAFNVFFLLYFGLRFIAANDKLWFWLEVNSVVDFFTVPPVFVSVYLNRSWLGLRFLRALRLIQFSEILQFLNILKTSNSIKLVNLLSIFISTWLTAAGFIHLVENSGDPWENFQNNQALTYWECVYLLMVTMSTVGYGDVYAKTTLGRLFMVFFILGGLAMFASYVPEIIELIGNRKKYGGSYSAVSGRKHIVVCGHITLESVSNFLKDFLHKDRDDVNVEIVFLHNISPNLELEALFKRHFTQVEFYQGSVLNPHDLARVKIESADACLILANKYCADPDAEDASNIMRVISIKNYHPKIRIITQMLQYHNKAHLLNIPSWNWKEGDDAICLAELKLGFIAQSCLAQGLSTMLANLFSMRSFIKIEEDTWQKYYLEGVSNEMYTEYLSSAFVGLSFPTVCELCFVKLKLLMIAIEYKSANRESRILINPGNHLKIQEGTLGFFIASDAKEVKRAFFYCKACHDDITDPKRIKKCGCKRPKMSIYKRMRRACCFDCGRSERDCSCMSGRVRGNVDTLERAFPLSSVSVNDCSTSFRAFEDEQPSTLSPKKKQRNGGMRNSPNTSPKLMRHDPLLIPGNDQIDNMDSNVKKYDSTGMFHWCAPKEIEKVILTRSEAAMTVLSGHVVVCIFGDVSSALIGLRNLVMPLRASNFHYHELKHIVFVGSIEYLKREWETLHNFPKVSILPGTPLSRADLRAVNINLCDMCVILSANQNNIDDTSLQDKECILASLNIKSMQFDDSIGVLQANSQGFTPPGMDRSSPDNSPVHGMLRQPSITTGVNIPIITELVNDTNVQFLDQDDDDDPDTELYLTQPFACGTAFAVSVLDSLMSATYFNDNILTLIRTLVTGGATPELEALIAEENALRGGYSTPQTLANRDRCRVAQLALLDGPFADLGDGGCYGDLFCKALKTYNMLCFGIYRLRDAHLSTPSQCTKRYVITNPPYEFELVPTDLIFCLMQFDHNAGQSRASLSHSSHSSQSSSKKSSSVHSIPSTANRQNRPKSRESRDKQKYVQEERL
Type: cell-based
`C[C@]1(C(=O)O)CCC[C@]2(C)c3cc(OCc4ccc(Cl)cc4)ccc3CC[C@@H]12` showed an Activity of 121%.
In the case of `C[C@]1(C(=O)O)CCC[C@]2(C)c3cc(OCc4ccc(C#N)cc4)ccc3CC[C@@H]12`, the Activity is reported as 116%.
With `C[C@]1(C(=O)O)CCC[C@]2(C)c3cc(OCc4ccccc4)ccc3CC[C@@H]12` the Activity was 209%.
Molecule `COC(=O)[C@@]1(C)CCC[C@]2(C)c3cc(OCCCc4ccccc4)ccc3CC[C@@H]12` has an Activity of 116%.
Molecule `C[C@]1(C(=O)O)CCC[C@]2(C)c3cc(OCCCc4ccccc4)ccc3CC[C@@H]12` has an Activity of 244%.
`C[C@]1(C(=O)O)CCC[C@]2(C)c3cc(O)ccc3CC[C@@H]12` was tested, and the Activity was 207%.
Molecule `C[C@]1(C(=O)O)CCC[C@]2(C)c3cc(OCc4ccc5ccccc5c4)ccc3CC[C@@H]12` has an Activity of 122%.
`C[C@]1(C(=O)O)CCC[C@]2(C)c3cc(OCc4ccc(OC(F)(F)F)cc4)ccc3CC[C@@H]12` showed an Activity of 139%.
`CC(C)(C)c1ccc(COc2ccc3c(c2)[C@@]2(C)CCC[C@](C)(C(=O)O)[C@@H]2CC3)cc1` showed an Activity of 116%.
`CC(C)c1ccc(COc2ccc3c(c2)[C@@]2(C)CCC[C@](C)(C(=O)O)[C@@H]2CC3)cc1` gave an Activity of 125%.
For `COc1ccc2c(c1)[C@@]1(C)CCC[C@](C)(C(=O)O)[C@@H]1CC2`, the Activity was 124%.
`Cc1ccc(COc2ccc3c(c2)[C@@]2(C)CCC[C@](C)(C(=O)O)[C@@H]2CC3)cc1` showed an Activity of 151%.
`C[C@]1(C(=O)O)CCC[C@]2(C)c3cc(OCC4CCCCC4)ccc3CC[C@@H]12` was tested, and the Activity was 124%.
For `C=CCOc1ccc2c(c1)[C@@]1(C)CCC[C@](C)(C(=O)O)[C@@H]1CC2`, the Activity was 148%.
For `CC(C)Oc1ccc2c(c1)[C@@]1(C)CCC[C@](C)(C(=O)O)[C@@H]1CC2`, the Activity was 134%.
`Cc1ccccc1COc1ccc2c(c1)[C@@]1(C)CCC[C@](C)(C(=O)O)[C@@H]1CC2` was tested, and the Activity was 88.9%.
With `COC(=O)[C@@]1(C)CCC[C@]2(C)c3cc(O)ccc3CC[C@@H]12` the Activity was 118%.
With `C[C@]1(C(=O)O)CCC[C@]2(C)c3cc(OCCOCc4ccccc4)ccc3CC[C@@H]12` the Activity was 124%.
`C[C@]1(C(=O)O)CCC[C@]2(C)c3cc(OCc4ccc(C(F)(F)F)cc4)ccc3CC[C@@H]12` gave an Activity of 185%.
With `CCCOc1ccc2c(c1)[C@@]1(C)CCC[C@](C)(C(=O)O)[C@@H]1CC2` the Activity was 170%.
In the case of `Cc1cc(C)cc(COc2ccc3c(c2)[C@@]2(C)CCC[C@](C)(C(=O)O)[C@@H]2CC3)c1`, the Activity is reported as 130%.
`C[C@]1(C(=O)O)CCC[C@]2(C)c3cc(OCCN4CCCCC4)ccc3CC[C@@H]12` gave an Activity of 103%.
`COc1ccc(COc2ccc3c(c2)[C@@]2(C)CCC[C@](C)(C(=O)O)[C@@H]2CC3)cc1` was tested, and the Activity was 109%.
